# Patent US20200239398A1, “METHYLENE-CYCLOALKYLACETATE DERIVATIVES AND THEIR USE IN TREATMENT OF NEUROTROPIC CONDITIONS” (Yissum Research Development Company of The Hebrew …, priority 2018, published 2020)
# Where two headings read alike, the source gives them in different places.
# Legend:
# [1] = biological target: Histamine Receptor H1 (HRH1) (Homo sapiens, UniProt P35367); experiment: SAFETYscan HRH1 Calcium Flux; assay type: cell-based; conditions: 10 μM HU-MCA-13, read-out: Maximal Response
# hERG (Kv11.1) = biological target: T1, hERG (Kv11.1) (Homo sapiens, UniProt Q12809); experiment: in vitro; assay type: cell-based; conditions: Blocker mode, 10 μM HU-MCA-13, read-out: Maximal Response
# T1 construct: DiscoverX (SAFETYscan contract panel)
# [2] = biological target: Opioid Receptor Mu 1 (OPRM1) (Homo sapiens, UniProt P35372); experiment: cell-based; conditions: 10 μM HU-MCA-13, read-out: Maximal Response
# [3] = biological target: Endothelin Receptor Type A (EDNRA) (Homo sapiens, UniProt P25101); experiment: SAFETYscan EDNRA Calcium Flux; assay type: cell-based; conditions: Agonist mode; 10 μM HU-MCA-13; read-out: Maximal Response
# [4] = biological target: Cholecystokinin Receptor A (CCKAR) (Homo sapiens, UniProt P32238); experiment: SAFETYscan CCKAR Calcium Flux; assay type: cell-based; conditions: 10 μM HU-MCA-13, read-out: Maximal Response
# PC12 cells [5] = experiment: Additive neurotropic effect between HU-MCA-13 and NGF, PC12 neurite outgrowth; assay type: cell-based, rat
# Protocol: PC12 cells were cultured in T-200 flasks in high glucose (4.5 gr/L) DMEM medium supplemented with 7% FCS, 7% horse serum and 1% penicillin and streptomycin. Cells will be maintained at 37° C. in a humidified incubator containing 6% CO2. All experiments were carried out in a GLP clean room, according to ISO 7 requirements (10,000 particles/m^3). For neurotropic experiments, tissue culture Falcon plates were coated with 200 μg/ml collagen type 1 and placed under UV light for 30 minutes for sterilization. Thereafter, one ml of PC12 cell suspension (5000 cells/well) was applied in 12 or 24 well plate, respectively. The cultures were maintained in the incubator two days before exposure to investigated compound. Each neurotropic experiment contained two controls. The first consisted of untreated cells (negative control), representing the random effect: “noise signal”—the ability of cells to spontaneously grow neurite outgrowth which in seven days are of a length less than two-fold cell diameter. Also, negative controls consisted of cultures treated with 1% DMSO, solvent used to solubilize HU-MCA-13. The positive controls represented neuronal cultures treated with 50 ng/ml NGF, indicating maximal neurite outgrowth that can be achieved in this model. The experimental group consisted of PC12 cells treated with 10 μM HU-MCA-13. In each experiment, after two and seven days, six cultures will be evaluated for neurotropic effect. These consecutive observations allow measurement of the progress of neurite outgrowth elongation and the percentage of cells with neurites (Katzir et al. A quantitative bioassay for nerve growth factor, using PC12 clones expressing different levels of trkA receptors. J Mol Neurosci. 2002; 18(3):251-64). In order to assess neurotropic effect, the neurite outgrowth length in each culture was quantified. For this purpose, each culture was placed under an inverted microscope and photographed by the attached camera. Each well was photographed at three to five representative areas. After acquiring the photos, they were analyzed by ImageJ, NIH software. The neurite outgrowth was estimated by fractal dimension (Df), a statistical parameter that describes the fractional space (area and length) filled by neurite outgrowth. Df ranged from 0 to 1.20. This method estimated the amount of picsels covered by neurites/cells compared to empty space per square field, and therefore plotting log(number of square boxes) vs. log(size in pixels) relationship generated a linear curve with Df representing the slope of the curve. Every photograph that was taken, was opened in a Photoshop software and a new layer was generated on it. Using a 5-pixel wide digital pencil tool, all the outgrowths were marked and the layer with the markers (outgrowth network) were saved in a 0-255 gray scale. Thereafter, the saved layer was opened by ImageJ NIH software.
# Using an established PC12 neurotropic in vitro assay, the regenerative enhancing effect of HU-MCA-13 when applied concomitantly, together with NGF, a known neurotrophin was investigated. […] NGF alone, as positive control, at the conventional dose of 50 ng/ml enhanced neurite outgrowth to a Df value of 0.54 at 2 days and 0.4 at 7 days of treatment (FIG. 5). To verify a possible additive effect, the cultures with a mixture of low dose NGF (1 ng/ml generating 10% neurite outgrowth=Df of 0.05) and 1 μM HU-MCA-13 generating about 10-15% neurite outgrowth=Df of 0.04) were tested and found after 2 days a Df of 0.85 and after 7 days a Df of 0.38. NGF is released by hematopoietic cells during polyneuropathy inflammatory process, this finding further strength the possibility of a potential enhancement regenerative effect of this drug upon in vivo therapy.
# [6] = biological target: Adrenergic Receptor β1 (ADRB1) (Homo sapiens, UniProt P08588); experiment: SAFETYscan ADRB1 cAMP; assay type: cell-based; conditions: 10 μM HU-MCA-13, read-out: Maximal Response
# [7] = biological target: Arginine Vasopressin Receptor 1A (AVPR1A) (Homo sapiens, UniProt P37288); experiment: SAFETYscan AVPR1A Calcium Flux; assay type: cell-based; conditions: 10 μM HU-MCA-13, read-out: Maximal Response
# [8] = biological target: T2, N-methyl-D-aspartate (NMDA) Glutamate Receptor 1A/2B (NMDAR (1A/2B)) (Homo sapiens, UniProt Q05586+Q13224); experiment: SAFETYscan NMDAR (1A/2B) Ion channel; assay type: cell-based; conditions: Blocker mode; 10 μM HU-MCA-13; read-out: Maximal Response
# T2 construct: DiscoverX (SAFETYscan contract panel)
# [9] = biological target: T3, Nicotinic acetylcholine Receptor-alpha-4 beta-2 (nAChR (a4/b2)) (Homo sapiens, UniProt P17787+P43681); experiment: cell-based; assay type: cell-based; conditions: 10 μM HU-MCA-13, read-out: Maximal Response
# T3 construct: DiscoverX (SAFETYscan contract panel)
# [10] = biological target: Dopamine Receptor D2 (DRD2S) (Homo sapiens, UniProt P14416); experiment: SAFETYscan DRD2S cAMP; assay type: cell-based; conditions: 10 μM HU-MCA-13
# PC12 cells [11] = experiment: Cytotoxicity (cell morphology, LDH release); assay type: cell-based; conditions: 10 μM
# [12] = biological target: Muscarinic acetylcholine Receptor M2 (CHRM2) (Homo sapiens, UniProt P08172); experiment: SAFETYscan CHRM2 cAMP; assay type: cell-based; conditions: 10 μM HU-MCA-13, read-out: Maximal Response
# [13] = biological target: T4, Serotonin transporter (SERT) (Homo sapiens, UniProt P31645); experiment: cell-based; conditions: Blocker mode; 10 μM HU-MCA-13; read-out: Maximal Response
# T4 construct: DiscoverX (SAFETYscan contract panel)
# [14] = biological target: T5, Norepinephrine transporter (NET) (Homo sapiens, UniProt P23975); experiment: SAFETYscan NET Transporter; assay type: cell-based; conditions: Blocker mode; 10 μM HU-MCA-13; read-out: Maximal Response
# T5 construct: DiscoverX (SAFETYscan contract panel)
# T5 sequence (P23975 whole entry): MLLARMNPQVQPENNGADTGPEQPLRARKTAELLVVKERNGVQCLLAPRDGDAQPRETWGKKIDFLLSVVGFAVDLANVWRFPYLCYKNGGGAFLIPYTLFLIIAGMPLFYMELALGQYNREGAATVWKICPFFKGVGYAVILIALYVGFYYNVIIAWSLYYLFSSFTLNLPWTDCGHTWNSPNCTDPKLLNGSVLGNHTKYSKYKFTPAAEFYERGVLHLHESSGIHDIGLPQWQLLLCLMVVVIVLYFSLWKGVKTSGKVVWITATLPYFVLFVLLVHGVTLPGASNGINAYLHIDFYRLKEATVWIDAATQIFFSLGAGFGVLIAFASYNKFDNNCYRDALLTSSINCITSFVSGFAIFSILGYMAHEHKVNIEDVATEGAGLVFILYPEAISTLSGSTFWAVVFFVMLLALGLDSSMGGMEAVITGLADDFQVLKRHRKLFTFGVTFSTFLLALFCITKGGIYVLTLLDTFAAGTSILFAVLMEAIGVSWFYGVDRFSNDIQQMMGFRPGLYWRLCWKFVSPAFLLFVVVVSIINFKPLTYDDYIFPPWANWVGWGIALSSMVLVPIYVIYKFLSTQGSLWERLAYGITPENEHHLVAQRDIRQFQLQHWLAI
# Chain of Cholecystokinin Receptor A (CCKAR) (P32238 whole entry): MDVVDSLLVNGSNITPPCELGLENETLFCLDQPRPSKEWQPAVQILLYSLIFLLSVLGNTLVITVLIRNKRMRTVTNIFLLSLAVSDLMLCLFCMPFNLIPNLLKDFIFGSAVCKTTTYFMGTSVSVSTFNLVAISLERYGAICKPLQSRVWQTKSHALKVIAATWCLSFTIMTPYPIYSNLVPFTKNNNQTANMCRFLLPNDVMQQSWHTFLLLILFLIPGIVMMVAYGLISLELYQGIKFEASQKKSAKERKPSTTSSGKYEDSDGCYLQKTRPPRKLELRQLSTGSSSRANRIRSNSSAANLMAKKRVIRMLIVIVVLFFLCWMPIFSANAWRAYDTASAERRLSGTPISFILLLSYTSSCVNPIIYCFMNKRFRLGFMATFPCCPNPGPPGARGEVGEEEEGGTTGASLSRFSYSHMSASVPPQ
# Chain of Adrenergic Receptor β1 (ADRB1) (P08588 whole entry): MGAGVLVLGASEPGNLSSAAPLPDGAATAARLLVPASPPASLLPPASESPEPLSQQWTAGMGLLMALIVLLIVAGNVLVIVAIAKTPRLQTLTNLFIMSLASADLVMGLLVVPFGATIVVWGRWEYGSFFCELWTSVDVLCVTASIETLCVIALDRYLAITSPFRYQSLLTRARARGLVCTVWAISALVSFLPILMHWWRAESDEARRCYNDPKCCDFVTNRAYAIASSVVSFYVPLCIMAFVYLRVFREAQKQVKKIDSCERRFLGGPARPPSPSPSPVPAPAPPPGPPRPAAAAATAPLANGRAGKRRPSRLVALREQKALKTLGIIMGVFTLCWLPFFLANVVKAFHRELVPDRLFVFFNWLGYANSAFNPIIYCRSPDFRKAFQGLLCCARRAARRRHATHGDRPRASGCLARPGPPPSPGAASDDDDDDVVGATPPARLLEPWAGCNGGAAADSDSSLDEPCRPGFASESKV
# Chain of Muscarinic acetylcholine Receptor M2 (CHRM2) (P08172 whole entry): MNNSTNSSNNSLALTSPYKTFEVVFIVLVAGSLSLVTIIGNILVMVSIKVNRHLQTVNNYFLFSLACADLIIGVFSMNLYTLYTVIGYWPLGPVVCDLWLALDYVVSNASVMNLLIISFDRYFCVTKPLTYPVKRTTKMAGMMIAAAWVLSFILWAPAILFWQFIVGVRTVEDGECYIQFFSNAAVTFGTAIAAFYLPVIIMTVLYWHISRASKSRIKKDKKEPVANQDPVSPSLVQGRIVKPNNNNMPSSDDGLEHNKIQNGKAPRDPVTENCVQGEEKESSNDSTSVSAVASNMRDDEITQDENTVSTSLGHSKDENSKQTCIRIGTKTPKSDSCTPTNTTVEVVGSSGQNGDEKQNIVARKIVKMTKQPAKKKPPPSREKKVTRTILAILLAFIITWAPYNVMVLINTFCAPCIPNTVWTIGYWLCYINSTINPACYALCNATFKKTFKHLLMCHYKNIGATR
# Chain of Histamine Receptor H1 (HRH1) (P35367 whole entry): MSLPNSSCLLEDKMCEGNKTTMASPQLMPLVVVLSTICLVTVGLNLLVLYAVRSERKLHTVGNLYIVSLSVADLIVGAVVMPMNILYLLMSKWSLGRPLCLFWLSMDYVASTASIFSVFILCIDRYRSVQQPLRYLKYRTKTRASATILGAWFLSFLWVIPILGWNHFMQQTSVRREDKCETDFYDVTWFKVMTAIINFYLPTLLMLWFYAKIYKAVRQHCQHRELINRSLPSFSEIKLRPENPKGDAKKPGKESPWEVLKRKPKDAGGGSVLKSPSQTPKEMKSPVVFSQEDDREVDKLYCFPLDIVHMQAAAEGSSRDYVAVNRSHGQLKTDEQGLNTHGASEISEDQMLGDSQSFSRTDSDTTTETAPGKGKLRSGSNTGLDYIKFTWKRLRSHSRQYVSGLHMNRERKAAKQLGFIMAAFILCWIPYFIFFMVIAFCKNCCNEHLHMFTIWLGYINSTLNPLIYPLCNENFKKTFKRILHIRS
# Chain of Opioid Receptor Mu 1 (OPRM1) (P35372 whole entry): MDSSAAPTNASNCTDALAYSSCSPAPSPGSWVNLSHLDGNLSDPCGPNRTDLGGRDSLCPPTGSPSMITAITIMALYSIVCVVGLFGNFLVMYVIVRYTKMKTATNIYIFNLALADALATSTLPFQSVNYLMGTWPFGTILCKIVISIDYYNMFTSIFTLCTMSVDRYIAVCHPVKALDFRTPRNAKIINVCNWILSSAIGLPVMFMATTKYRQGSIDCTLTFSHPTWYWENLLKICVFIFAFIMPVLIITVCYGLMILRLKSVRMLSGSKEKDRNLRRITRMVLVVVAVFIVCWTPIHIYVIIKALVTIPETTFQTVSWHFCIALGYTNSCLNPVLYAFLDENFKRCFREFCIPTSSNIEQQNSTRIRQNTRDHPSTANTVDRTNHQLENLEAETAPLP
# Chain of Dopamine Receptor D2 (DRD2S) (P14416 1-414 isoform P14416-2): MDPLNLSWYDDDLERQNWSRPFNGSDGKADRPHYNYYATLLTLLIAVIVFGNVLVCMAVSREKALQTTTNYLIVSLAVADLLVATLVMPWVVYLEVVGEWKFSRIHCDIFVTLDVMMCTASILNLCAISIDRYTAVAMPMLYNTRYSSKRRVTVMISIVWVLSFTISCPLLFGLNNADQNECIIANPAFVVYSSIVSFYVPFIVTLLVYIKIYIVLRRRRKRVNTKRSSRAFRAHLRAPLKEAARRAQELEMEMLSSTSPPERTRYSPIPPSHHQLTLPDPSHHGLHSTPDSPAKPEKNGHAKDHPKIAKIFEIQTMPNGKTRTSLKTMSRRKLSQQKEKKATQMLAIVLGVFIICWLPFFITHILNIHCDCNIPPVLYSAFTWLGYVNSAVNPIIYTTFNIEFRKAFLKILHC
# Chain of Arginine Vasopressin Receptor 1A (AVPR1A) (P37288 whole entry): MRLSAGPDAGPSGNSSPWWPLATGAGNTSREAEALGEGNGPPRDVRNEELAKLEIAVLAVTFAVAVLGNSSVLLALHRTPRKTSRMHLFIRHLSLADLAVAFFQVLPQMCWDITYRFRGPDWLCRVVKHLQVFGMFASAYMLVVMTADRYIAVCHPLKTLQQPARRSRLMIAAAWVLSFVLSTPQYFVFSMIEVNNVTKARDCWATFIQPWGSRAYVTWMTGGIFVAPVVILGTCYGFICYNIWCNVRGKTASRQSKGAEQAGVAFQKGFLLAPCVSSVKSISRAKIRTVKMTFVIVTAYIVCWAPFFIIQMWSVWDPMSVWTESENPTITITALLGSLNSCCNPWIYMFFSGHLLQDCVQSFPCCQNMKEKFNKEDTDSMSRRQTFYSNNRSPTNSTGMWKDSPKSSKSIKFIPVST
# T3 sequence (P43681 29-627 limits assumed): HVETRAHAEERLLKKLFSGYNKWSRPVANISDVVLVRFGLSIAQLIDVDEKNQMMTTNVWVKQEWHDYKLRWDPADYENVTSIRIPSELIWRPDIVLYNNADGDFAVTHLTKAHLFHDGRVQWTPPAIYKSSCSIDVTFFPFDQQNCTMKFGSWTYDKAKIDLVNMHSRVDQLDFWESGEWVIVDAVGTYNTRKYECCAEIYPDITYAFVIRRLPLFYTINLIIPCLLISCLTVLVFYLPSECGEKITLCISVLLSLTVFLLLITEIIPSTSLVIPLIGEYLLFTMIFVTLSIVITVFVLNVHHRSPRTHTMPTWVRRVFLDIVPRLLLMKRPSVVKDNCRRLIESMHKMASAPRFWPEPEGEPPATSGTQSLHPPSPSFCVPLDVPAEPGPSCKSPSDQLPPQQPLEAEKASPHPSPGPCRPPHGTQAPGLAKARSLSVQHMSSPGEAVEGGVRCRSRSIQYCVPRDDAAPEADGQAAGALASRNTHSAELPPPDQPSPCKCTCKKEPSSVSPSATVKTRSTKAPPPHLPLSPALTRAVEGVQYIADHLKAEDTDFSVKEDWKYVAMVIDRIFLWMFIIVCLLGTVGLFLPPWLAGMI
# T3 sequence (P17787 26-502): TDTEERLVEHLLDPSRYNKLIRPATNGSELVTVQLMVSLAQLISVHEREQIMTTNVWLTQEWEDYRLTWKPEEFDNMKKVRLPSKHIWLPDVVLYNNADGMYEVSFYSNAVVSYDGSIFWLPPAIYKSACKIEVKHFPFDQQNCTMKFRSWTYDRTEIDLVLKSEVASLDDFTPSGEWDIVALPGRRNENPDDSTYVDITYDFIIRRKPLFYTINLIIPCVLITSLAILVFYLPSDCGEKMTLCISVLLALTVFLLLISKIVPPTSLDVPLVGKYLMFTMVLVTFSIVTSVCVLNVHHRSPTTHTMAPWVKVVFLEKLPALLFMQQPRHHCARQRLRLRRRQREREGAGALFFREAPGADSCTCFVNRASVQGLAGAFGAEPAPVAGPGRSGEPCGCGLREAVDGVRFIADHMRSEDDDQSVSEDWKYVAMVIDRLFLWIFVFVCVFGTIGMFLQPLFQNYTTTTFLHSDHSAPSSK
smiles,measurement,setting,value
C=CCC1CCC[C@@H](CCC(=O)O)C1=C (some centres unmarked) [Compound 13],Emax,[1]; Agonist mode,0%
same,Emax,[1]; Antagonist mode,1.05%
same,Emax at 10 μM,hERG (Kv11.1),0%
same,Emax,"[2]; OPRM1, Agonist mode",9.31%
same,Emax,"[2]; OPRM1, Antagonist mode",0.38%
same,Emax,[3],0%
same,Emax,[4]; Agonist mode,1.56%
same,Emax,[4]; Antagonist mode,0%
same,neurite outgrowth,PC12 cells [5]; 1 μM HU-MCA-13,10-15%
same,neurite outgrowth Df,PC12 cells [5]; 1 μM HU-MCA-13,0.04
same,neurite outgrowth Df,"PC12 cells [5]; HU-MCA-13 alone at 10 μM, 2 days",0.36
same,neurite outgrowth Df,"PC12 cells [5]; HU-MCA-13 alone at 10 μM, 7 days",0.30
same,Emax,[6]; Agonist mode,1.92%
same,Emax,[6]; Antagonist mode,9.29%
same,Emax,[7]; Agonist mode,0.29%
same,Emax,[7]; Antagonist mode,0%
same,Emax,[8],0%
same,Emax,[9]; Blocker mode,5.95%
same,Emax,[9]; Opener mode,0%
same,Emax,"[10]; read-out: Maximal Response, Agonist mode",0%
same,Emax,"[10]; read-out: Maximal Response, Antagonist mode",0.51%
same,cytotoxicity (in words),PC12 cells [11],not toxic to neurons
same,Emax,[12]; Agonist mode,11.7%
same,Emax,[12]; Antagonist mode,0%
same,Emax,[13],15.4%
same,Emax,[14],3.53%
